In patent US7312188B2, “Peptide derivatives having β-secretase inhibitory activity” (priority 2003, dated 2007):
Numbered stars: 1 amine (or outer) side, 2 acyl side, 3 side chain; on linkers, the order of the positions; unused ones are H or OH. Square brackets hold non-standard residues; d marks the D form. Peptide text beside a SMILES is read from it. * marks the point of attachment. ξ: configuration not given here. β3hPhe(2R-OH) = O=C([C@H](O)[C@H](Cc1ccccc1)N[*:1])[*:2]; X3 = CC(C)C[C@H](N[*:1])[C@@H](O)C(=O)[*:2]; Ala(4-thiazolyl) = N[C@@H](Cc1cscn1)C(=O)O; Thz(5,5-Me2) = CC1(C)SCN[C@@H]1C(=O)O; Oxalyl = O=C(C(=O)[*:2])[*:1]; 4Amb = NCc1ccc(C(=O)O)cc1; X1 = O=C(c1ccc(O)c(O)c1)*; Orn = NCCC[C@H](N)C(=O)O; ξE = NC(CCC(=O)O)C(=O)O; Dap = NC[C@H](N)C(=O)O; X4 = CCOC(=O)C(=O)*

target: T1, recombinant human BACE-1 (rhBACE-1) (Homo sapiens, UniProt P56817); experiment: BACE1 inhibitory activity, reverse phase HPLC quantitation of N-terminal fragment of fluorogenic substrate; assay type: biochemical; details: 1 μL of inhibitor solution in DMSO (100 μM) in 50 μL reaction; MES buffer pH 5.0; 37° C., 60 minutes
T1 construct: expressed as only an extracellular region (amino acid 1-460 residues) of recombinant human β-secretase; His tag (C); purchased R&D systems (Minneapolis, Minn.); host or cells: murine myeloma cell line NS0
Text: Experiment Regarding Measurement of BACE1 Inhibitory Activity
Enzyme Used in Measurement
As an enzyme having β-secretase activity, recombinant human BACE-1 (rhBACE-1) purchased from R&D systems (Minneapolis, Minn.) was used. rhBACE-1 is expressed as only an extracellular region (amino acid 1-460 residues) of recombinant human β-secretase, with a His tag at its carboxyl terminal in murine myeloma cell line, NS0. Purified secreted rhBACE1 is a mixture of a pro entity (about 75 kDa) and a mature entity (about 72 kDa).
Assessment of Enzyme Inhibitory Activity
Enzyme inhibitory activity of an inhibitor was assessed by quantitating an N-terminal fragment produced aftercleaving the substrate with BACE1 by reverse HPLC using (7-methoxycoumarin-4-yl)acetyl-[…]2,4-dinitrophenyl)-Arg-Arg-NH2 purchased from Peptide Institute (Osaka, Japan) as a substrate for BACE1. To 40 μL of 62.5 mM 2-(N-morpholino)ethansulfonic acid (MES)-CH3COOH—NaOH buffer (pH 5.0), were added 1 μL of a solution of an inhibitor diluted with DMSO (100 μM), 4 μL of rhBACE-1 (6.25 ng/μL), and 5 μL of an aqueous solution (50% DMSO) of 250 μM substrate (7-methoxycoumarin-4-yl)acetyl-[…]2,4-dinitrophenyl)-Arg-Arg-NH2 to initiate an enzyme reaction. After incubation at 37° C. for 60 minutes, 20 μL of 20% trichloroacetic acid was added to stop the reaction. And, inhibition % was calculated by measuring a fluorescent intensity of the N-terminal fragment (Ex, 328 nm; Em, 393 nm) using reverse phase HPLC (linear gradient of MeCN in aqueous TFA; flow rate, 1.0 mL/min).
BACE1 Inhibitory Activity
Enzyme inhibitory activity of an inhibitor was assessed by quantitating a N-terminal fragment produced after cleavage of a substrate with BACE1 by reverse phase HPLC using (7-methoxycoumarin-4-yl)acetyl-[…]2,4-dinitrophenyl)-Arg-Arg-NH2 purchased from Peptide Institute (Osaka, Japan) as a substrate for BACE1. Recombinant human BACE-1 purchased from R&D systems (Minneapolis, Minn.) was used. To 40 μL of 62.5 mM 2-(N-morpholino)ethansulfonic acid (MES)-CH3COOH—NaOH buffer (pH 5.0), were added 1 μL of a solution of an inhibitor diluted with DMSO (100 μM), 4 μL of BACE1 (6.25 ng/μL), and 5 μL of an aqueous solution (50% DMSO) of 250 μM substrate (7-methoxycoumarin-4-yl)acetyl-[…]2,4-dinitrophenyl)-Arg-Arg-NH2 to initiate an enzyme reaction. After incubation at 37° C. for 60 minutes, 20 μL of 20% trichloroacetic acid was added to stop a reaction. Inhibition % was calculated by measuring a fluorescent intensity of the N-terminal fragment (Ex, 328 nm; Em, 393 nm) using reverse phase HPLC (linear gradient of MeCN in aqueous TFA; flow rate, 1.0 mL/min).

T1 sequence (P56817 22-460 limits assumed): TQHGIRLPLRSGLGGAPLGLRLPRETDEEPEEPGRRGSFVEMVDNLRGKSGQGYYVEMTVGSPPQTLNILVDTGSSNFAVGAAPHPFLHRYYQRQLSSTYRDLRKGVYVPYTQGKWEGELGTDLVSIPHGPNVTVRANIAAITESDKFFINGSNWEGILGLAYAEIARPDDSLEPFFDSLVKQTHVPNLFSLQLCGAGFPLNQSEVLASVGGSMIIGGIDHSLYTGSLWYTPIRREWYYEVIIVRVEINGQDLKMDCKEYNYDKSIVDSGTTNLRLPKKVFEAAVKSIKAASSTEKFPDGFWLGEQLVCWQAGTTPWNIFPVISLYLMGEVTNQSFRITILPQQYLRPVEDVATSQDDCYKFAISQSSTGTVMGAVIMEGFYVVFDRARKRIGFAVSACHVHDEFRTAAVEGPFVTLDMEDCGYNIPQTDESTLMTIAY

inhibition at 2 µM	Structure (SMILES)	inhibition at 100 µM (stock)
54.4%	CCOC(=O)C(=O)NC[C@H](N)C(=O)N[C@H](C(=O)N[C@@H](CC(C)C)C(=O)N[C@@H](Cc1ccccc1)[C@@H](O)C(=O)Nc1cc(C(=O)OC)cc(C(=O)OC)c1)C(C)C [Example 104]	–
97.3%	CC(C)C[C@H](NC(=O)[C@@H](NC(=O)[C@@H](N)CNC(=O)c1nnn[nH]1)C(C)C)C(=O)N[C@@H](Cc1ccccc1)[C@@H](O)C(=O)Nc1cccc(C(N)=O)c1 [Example 124]	–
98.9%	CC(C)C[C@H](NC(=O)[C@@H](NC(=O)[C@@H](N)CNC(=O)C(=O)O)C(C)C)C(=O)N[C@@H](CC1CCCCC1)[C@@H](O)C(=O)Nc1cccc(C(=O)O)c1 [Example 126]	–
100%	CC(C)C[C@H](NC(=O)[C@@H](NC(=O)[C@@H](N)CNC(=O)c1nnn[nH]1)C(C)C)C(=O)N[C@@H](Cc1ccccc1)[C@@H](O)C(=O)Nc1cc(C(=O)O)cc(C(=O)O)c1 [Example 127]	–
74.1%	CSC[C@H](NC(=O)[C@@H](NC(=O)[C@@H](N)CCC(=O)O)C(C)C)C(=O)N[C@@H](Cc1ccccc1)[C@@H](O)C(=O)Nc1cccc(C(=O)O)c1 [Example 131]	–
99.6%	CC(C)[C@H](NC(=O)[C@@H](N)CNC(=O)C(=O)O)C(=O)N[C@@H](CC1CCCCC1)C(=O)N[C@@H](Cc1ccccc1)[C@@H](O)C(=O)Nc1cc(C(=O)O)cc(C(=O)O)c1 [Example 134]	–
99.8%	CC(C)[C@H](NC(=O)[C@@H](N)CNC(=O)c1nnn[nH]1)C(=O)N[C@@H](CC1CCCCC1)C(=O)N[C@@H](Cc1ccccc1)[C@@H](O)C(=O)Nc1cc(C(=O)O)cc(C(=O)O)c1 [Example 135]	–
99.5%	CC(C)[C@H](NC(=O)[C@@H](N)CNC(=O)c1nnn[nH]1)C(=O)N[C@@H](CC1CCCCC1)C(=O)N[C@@H](Cc1ccccc1)[C@@H](O)C(=O)Nc1cccc(C(=O)O)c1 [Example 137]	–

The remaining lines, values behind:

Structure (SMILES)	inhibition at 2 µM	inhibition at 100 µM (stock)
CCOC(=O)C(=O)NC[C@H](N)C(=O)N[C@H](C(=O)N[C@@H](CC(C)C)C(=O)N[C@@H](Cc1ccccc1)[C@@H](O)C(=O)N[C@@H](CC(=O)O)C(=O)N[C@@H](C)C(=O)N[C@@H](CCC(=O)O)C(=O)O)C(C)C [Example 95] (H-[Dap](X4)VL[β3hPhe(2R-OH)]DAE-OH)	61.7%	–
CC(C)C[C@H](NC(=O)[C@@H](NC(=O)[C@@H](N)CCC(=O)O)C(C)C)C(=O)N[C@@H](Cc1ccccc1)[C@@H](O)C(=O)N[C@H](C(=O)N[C@@H](C)C(=O)N[C@@H](CCC(=O)O)C(=O)N[C@@H](Cc1ccccc1)C(=O)O)C(C)C [Example 96] (H-EVL[β3hPhe(2R-OH)]VAEF-OH)	59.2%	–
CC(C)C[C@H](NC(=O)[C@@H](NC(=O)[C@@H](N)CCC(=O)O)C(C)C)C(=O)N[C@@H](CC(C)C)[C@@H](O)C(=O)N[C@@H](CC(=O)O)C(=O)N[C@@H](C)C(=O)N[C@@H](CCC(=O)O)C(=O)N[C@@H](Cc1ccccc1)C(=O)O [Example 97] (H-EVL[X3]DAEF-OH)	59.1%	–
CC(C)C[C@H](NC(=O)[C@@H](NC(=O)[C@@H](N)CCC(=O)O)C(C)C)C(=O)N[C@@H](Cc1ccccc1)[C@@H](O)C(=O)N[C@@H](CC(=O)O)C(=O)N[C@@H](C)C(=O)N[C@@H](CC(=O)O)C(=O)O [Example 98] (H-EVL[β3hPhe(2R-OH)]DAD-OH)	58.4%	–
CC(C)[C@H](NC(=O)[C@@H](N)CCC(=O)O)C(=O)N[C@@H](Cc1cscn1)C(=O)N[C@@H](Cc1ccccc1)[C@@H](O)C(=O)N[C@@H](CC(=O)O)C(=O)N[C@@H](C)C(=O)N[C@@H](CCC(=O)O)C(=O)N[C@@H](Cc1ccccc1)C(=O)O [Example 99] (H-EV[Ala(4-thiazolyl)][β3hPhe(2R-OH)]DAEF-OH)	58%	–
CC(C)C[C@H](NC(=O)[C@@H](NC(=O)[C@@H](N)CCC(=O)O)C(C)C)C(=O)N[C@@H](Cc1ccccc1)[C@@H](O)C(=O)N[C@H](CC(=O)O)C(=O)O [Example 100] (H-EVL[β3hPhe(2R-OH)][dD]-OH)	56.9%	–
CC(C)C[C@H](NC(=O)[C@@H](NC(=O)[C@@H](N)CCCNC(=O)C(=O)O)C(C)C)C(=O)N[C@@H](Cc1ccccc1)[C@@H](O)C(=O)N[C@@H](CC(=O)O)C(=O)N[C@@H](C)C(=O)N[C@@H](CCC(=O)O)C(=O)O [Example 101] (H-[Orn](Oxalyl)VL[β3hPhe(2R-OH)]DAE-OH)	56.1%	–
CC(C)C[C@H](NC(=O)[C@@H](NC(=O)[C@@H](N)CCC(=O)O)C(C)C)C(=O)N[C@@H](Cc1ccccc1)[C@@H](O)C(=O)N[C@@H](CC(=O)O)C(=O)NCc1ccc(C(=O)O)cc1 [Example 103] (H-EVL[β3hPhe(2R-OH)]D[4Amb]-OH)	54.6%	–
CC(C)C[C@H](NC(=O)[C@@H](NC(=O)[C@@H](N)CCC(=O)O)C(C)C)C(=O)N[C@@H](Cc1ccccc1)[C@@H](O)C(=O)N1CSC(C)(C)[C@H]1C(=O)N[C@@H](C)C(=O)NC(CCC(=O)O)C(=O)N[C@@H](Cc1ccccc1)C(=O)O (stereo partly drawn) [Example 106] (H-EVL[β3hPhe(2R-OH)][Thz(5,5-Me2)]A[ξE]F-OH)	53%	–
CC(C)C[C@H](NC(=O)[C@@H](NC(=O)[C@@H](N)CCC(=O)O)C(C)C)C(=O)N[C@@H](Cc1ccccc1)[C@@H](O)C(=O)N[C@@H](CC(C)C)C(=O)N[C@@H](C)C(=O)N[C@@H](CCC(=O)O)C(=O)N[C@@H](Cc1ccccc1)C(=O)O [Example 107] (H-EVL[β3hPhe(2R-OH)]LAEF-OH)	52.1%	–
CC(C)C[C@H](NC(=O)[C@@H](NC(=O)[C@@H](N)CCC(=O)O)C(C)C)C(=O)N[C@@H](Cc1ccccc1)[C@@H](O)C(=O)N[C@@H](CC(=O)O)C(=O)N[C@@H](C)C(=O)NCc1ccc(C(=O)O)cc1 [Example 108] (H-EVL[β3hPhe(2R-OH)]DA[4Amb]-OH)	51.3%	–
CC(C)[C@H](NC(=O)[C@@H](NC(=O)[C@@H](N)CCC(=O)O)C(C)C)C(=O)N[C@@H](Cc1ccccc1)[C@@H](O)C(=O)N[C@@H](CC(=O)O)C(=O)N[C@@H](C)C(=O)N[C@@H](CCC(=O)O)C(=O)N[C@@H](Cc1ccccc1)C(=O)O [Example 123] (H-EVV[β3hPhe(2R-OH)]DAEF-OH)	61.4%	–
Cc1c(NC(=O)[C@H](O)[C@H](Cc2ccccc2)NC(=O)[C@H](CC(C)C)NC(=O)[C@@H](NC(=O)[C@@H](N)CCC(=O)O)C(C)C)cccc1C(=O)O [Example 128]	53.6%	–
COc1cc(NC(=O)[C@H](O)[C@H](Cc2ccccc2)NC(=O)[C@H](CC(C)C)NC(=O)[C@@H](NC(=O)[C@@H](N)CCC(=O)O)C(C)C)cc(OC)c1 [Example 129]	61%	–
CC(C)C[C@H](NC(=O)[C@@H](NC(=O)[C@@H](N)CCC(=O)O)C(C)C)C(=O)N[C@@H](Cc1ccccc1)[C@@H](O)C(=O)Nc1cccc(O)c1 [Example 130]	57.2%	–
CCSC[C@H](NC(=O)[C@@H](NC(=O)[C@@H](N)CCC(=O)O)C(C)C)C(=O)N[C@@H](Cc1ccccc1)[C@@H](O)C(=O)Nc1cccc(C(=O)O)c1 [Example 132]	68.1%	–
CC(C)C[C@H](NC(=O)[C@@H](NC(=O)[C@@H](N)CNC(=O)c1ccc(O)c(O)c1)C(C)C)C(=O)N[C@@H](Cc1ccccc1)[C@@H](O)C(=O)N[C@@H](CC(=O)O)C(=O)N[C@@H](C)C(=O)N[C@@H](CCC(=O)O)C(=O)O [Example 133] (H-[Dap](X1)VL[β3hPhe(2R-OH)]DAE-OH)	–	71.5%
CC(C)C[C@H](NC(=O)[C@@H](NC(=O)[C@@H](N)CCC(=O)O)C(C)C)C(=O)N[C@@H](Cc1ccccc1)[C@@H](O)C(=O)Nc1cccc(C(=O)OCC(F)(F)F)c1 [Example 138]	59.6%	–
